Where only a bound is given, the exact number is not on record here.

In this experiment the target is PIK3CD (Human) (UniProt O00329). The experiment can be described thus: Enzyme Assay.
Chain of PIK3CD (Human) (O00329 whole entry, looked up): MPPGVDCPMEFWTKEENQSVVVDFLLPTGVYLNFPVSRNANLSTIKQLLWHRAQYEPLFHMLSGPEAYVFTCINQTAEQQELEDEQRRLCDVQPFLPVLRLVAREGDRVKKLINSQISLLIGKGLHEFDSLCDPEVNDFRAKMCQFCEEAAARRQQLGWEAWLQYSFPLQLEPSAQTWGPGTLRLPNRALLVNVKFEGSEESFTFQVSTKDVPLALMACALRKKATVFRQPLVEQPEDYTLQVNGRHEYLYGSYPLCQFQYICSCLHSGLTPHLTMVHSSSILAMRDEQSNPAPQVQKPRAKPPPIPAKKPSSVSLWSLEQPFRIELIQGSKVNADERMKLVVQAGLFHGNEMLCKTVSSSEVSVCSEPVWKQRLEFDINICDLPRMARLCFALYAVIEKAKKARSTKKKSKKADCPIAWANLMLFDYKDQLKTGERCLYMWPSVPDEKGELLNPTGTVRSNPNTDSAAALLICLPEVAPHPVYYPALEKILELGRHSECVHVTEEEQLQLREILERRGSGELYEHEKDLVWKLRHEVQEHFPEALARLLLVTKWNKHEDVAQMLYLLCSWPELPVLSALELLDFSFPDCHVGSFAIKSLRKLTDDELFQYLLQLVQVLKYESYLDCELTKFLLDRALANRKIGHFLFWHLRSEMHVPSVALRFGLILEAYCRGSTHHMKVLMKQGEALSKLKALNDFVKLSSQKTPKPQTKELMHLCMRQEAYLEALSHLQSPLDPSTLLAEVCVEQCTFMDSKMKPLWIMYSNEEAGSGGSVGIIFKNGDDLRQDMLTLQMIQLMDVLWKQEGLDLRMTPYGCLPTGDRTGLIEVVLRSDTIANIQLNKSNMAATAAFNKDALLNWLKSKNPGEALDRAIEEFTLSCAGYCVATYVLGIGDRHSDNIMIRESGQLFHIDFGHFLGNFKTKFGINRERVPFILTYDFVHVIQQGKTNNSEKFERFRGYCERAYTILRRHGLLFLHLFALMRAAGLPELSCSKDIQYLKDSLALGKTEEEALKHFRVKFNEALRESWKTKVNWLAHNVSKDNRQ
Compound `CCn1ncc(-c2nc3c(O[C@H]4CCN(C(=O)c5ccn[nH]5)C4)ncnc3n2C)c1C` showed an IC50 of 0.003 µM.
`CCOC(=O)C(C)NC(=O)N1CC[C@H](Oc2ncnc3c2nc(-c2cnn(CC)c2C)n3C)C1` (stereo partly specified) returned an IC50 of 0.11 µM.
With `CCn1c(-c2cnc(C)nc2)nc2c(O[C@H]3CCN(C(=O)OCCCN(C)C)C3)ncnc21`, the IC50 was found to be 0.037 µM. Compared with the last compound, the IC50 is about 3-fold lower.
Turning to `CCC(=O)N1CC[C@H](Oc2ncnc3c2nc(Oc2cnc(C)nc2)n3C)C1`, the IC50 amounted to 0.38 µM.
In the case of `CCn1ncc(-c2nc3c(O[C@H]4CCN(C(=O)c5cc(C)[nH]n5)C4)ncnc3n2C)c1C`, the IC50 worked out at 0.028 µM. This IC50 is about 14-fold lower than that of the compound before.
The figure for `CCn1c(-c2cnc(C)nc2)nc2c(O[C@H]3CCN(C(=O)[C@@H](N)C(C)C)C3)ncnc21` is 0.0098 µM.
Then `CCn1ncc(-c2nc3c(O[C@H]4CCN(C(=O)c5ccno5)C4)ncnc3n2C)c1C`, with 0.0047 µM.
Regarding `CCn1ncc(-c2nc3c(O[C@H]4CCN(C(=O)c5oc(C)nc5C)C4)ncnc3n2C)c1C`, the IC50 was found to be 0.0037 µM.
In turn, `CCn1ncc(-c2nc3c(O[C@H]4CCN(C(=O)c5cc(C)on5)C4)ncnc3n2C)c1C` gave an IC50 of 0.012 µM.
`CCn1ncc(-c2nc3c(O[C@H]4CCN(C(C)=O)C4)ncnc3n2C)c1C` gave a concentration for half-maximal inhibition (IC50) of 0.056 µM. This IC50 lies about 4.7-fold higher than the previous one.
On to `CCn1c(-c2cnc3[nH]ccc3c2)nc2c(O[C@H]3CCN(C(=O)C4CC4)C3)ncnc21`, for which the IC50 is < 0.001 µM.
The compound `CCn1ncc(-c2nc3c(O[C@H]4CCN(C(=O)c5ccc(N6CCN(C)CC6)cc5)C4)ncnc3n2C)c1C` returned an IC50 of 0.11 µM.
In turn, `CCn1ncc(-c2nc3c(O[C@H]4CCN(C(=O)C(C)C)C4)ncnc3n2C)c1C` showed an IC50 of 0.004 µM.
Compound `CCn1ncc(-c2nc3c(S[C@H]4CCN(C(=O)C5CC5)C4)ncnc3n2C)c1C` yielded an IC50 of 0.0038 µM. The IC50 values of the last two compounds are within 1.5-fold of each other.
As to `CCn1ncc(-c2nc3c(OC4CCC(C(=O)N5CCOCC5)C4)ncnc3n2C)c1C` (stereo unspecified), the IC50 was determined as 0.22 µM.
`CCC(=O)N1CC[C@H](Oc2ncnc3c2nc(-c2cnc(OC)c(C(F)(F)F)c2)n3C)C1`: the IC50 worked out at 0.0078 µM.
The figure for `CCn1c(-c2cnc(C)nc2)nc2c(O[C@H]3C[C@H](NS(=O)(=O)CC)C3)ncnc21` is 0.15 µM; for `CCn1c(-c2cnc(C)nc2)nc2c(O[C@H]3CCN(C(=O)C4CC(C)C4)C3)ncnc21` (stereo partly specified) it is 0.0013 µM; for `CCn1ncc(-c2nc3c(O[C@H]4CCN(c5cc(-n6cccn6)ncn5)C4)ncnc3n2C)c1C` it is 0.216 µM.
In turn, `CCC(=O)N1CC[C@H](Oc2ncnc3c2nc(CC(C)C)n3CC)C1` registered an IC50 of 0.24 µM.
`CCn1ncc(-c2nc3c(O[C@H]4CCN(C(=O)c5cn[nH]c5)C4)ncnc3n2C)c1C` showed an IC50 of 0.016 µM.
In the case of `CCn1c(-c2cnc(C)nc2)nc2c(OC3CN(Cc4ccccc4)CC3(C)C)ncnc21` (stereo unspecified), the IC50 was found to be 0.028 µM.
In turn, `CCn1ncc(-c2nc3c(O[C@H]4CCN(C(=O)C5CC(=O)N(C)C5)C4)ncnc3n2C)c1C` (stereo partly specified) came in with an IC50 of 0.03 µM.
Consider `CCn1ncc(-c2nc3c(OC4CCN(C(=O)c5ccc6ccccc6c5)C4)ncnc3n2C)c1C` (stereo unspecified), for which the IC50 amounted to 0.028 µM.
`CCn1c(-c2cnc(C)nc2)nc2c(O[C@H]3CCN(C(=O)N4CCC(F)(F)C4)C3)ncnc21` showed an IC50 of 0.014 µM.
The figure for `CCn1ncc(-c2nc3c(O[C@H]4CCN(C(=O)c5nc6cc(Cl)ccn6n5)C4)ncnc3n2C)c1C` is 0.86 µM; for `CCn1ncc(-c2nc3c(O[C@H]4CCN(C(=O)c5cnoc5C(C)C)C4)ncnc3n2C)c1C` it is 0.041 µM.
In the case of `CCn1ncc(-c2nc3c(OC4CCN(C(=O)OC(C)(C)C)CC4)ncnc3n2C)c1C`, the IC50 amounted to 0.61 µM.
Regarding `CCn1ncc(-c2nc3c(O[C@H]4CCN(C(=O)c5c[nH]nn5)C4)ncnc3n2C)c1C`, the IC50 came to 0.012 µM. This IC50 lies about 51-fold lower than the previous one.
`CCCn1c(-c2cnn(CC)c2C)nc2c(O[C@H]3CCN(C(=O)CC)C3)ncnc21` came in with an IC50 of 0.058 µM.
Regarding `CCn1c(-c2cnc(OC)c(F)c2)nc2c(O[C@H]3CCN(C(=O)c4ccn(C)n4)C3)ncnc21`, the IC50 is < 0.001 µM.
For the compound `CCn1ncc(-c2nc3c(O[C@H]4CCN(C(=O)c5[nH]ncc5C)C4)ncnc3n2C)c1C`, the IC50 stood at 0.0036 µM.
`CCn1c(-c2cnc(C)nc2)nc2c(O[C@H]3CCN(C(=O)C4[C@@H](C)[C@@H]4C)C3)ncnc21` (stereo partly specified) registered an IC50 of 0.013 µM.
`CCN(C)C(=O)N1CC[C@H](Oc2ncnc3c2nc(-c2cnc(C)nc2)n3CC)C1`: the IC50 came out at 0.01 µM.
For `CCC(=O)N1CC[C@H](Oc2ncnc3c2nc(Oc2cc(F)cc(OC)c2)n3C)C1`, the IC50 was 0.11 µM. This IC50 lies about 11-fold higher than the previous one.
Consider `CCn1c(N(C)CCOC)nc2c(O[C@H]3CCN(C(=O)OC(C)(C)C)C3)ncnc21`, for which the IC50 worked out at 0.92 µM.
In turn, `CCn1ncc(-c2nc3c(O[C@H]4CCN(C(=O)C5CC(=O)N(C(C)C)C5)C4)ncnc3n2C)c1C` (stereo partly specified) yielded an IC50 of 0.01 µM.
With `CCn1ncc(-c2nc3c(O[C@H]4CCN(C(=O)c5cnoc5C)C4)ncnc3n2C)c1C`, the IC50 came out at 0.036 µM.
The figure for `CCn1ncc(-c2nc3c(O[C@H]4CCN(C(=O)Oc5cccc(C(F)(F)F)c5)C4)ncnc3n2C)c1C` is 0.3 µM.
Compound `CCC(=O)N1CC[C@H](Oc2ncnc3c2nc(-c2cnc(C(C)(C)C)s2)n3C)C1` gave an IC50 of 0.0016 µM.
Compound `CCn1c(-c2cnc(C)nc2)nc2c(O[C@H]3CCN(C(=O)N4CC(C)(OC)C4)C3)ncnc21` registered an IC50 of 0.034 µM. This IC50 is about 21-fold higher than that of the compound before.

Usually IC50 stands for the concentration that inhibits the measured activity by half. High values mean lower potency, low ones higher potency.

Source of the values: the Kinase Knowledgebase extract (Sharma et al. 2016).
